Measurements taken from US10081631B2, “2-(1H-indazol-3-yl)-1H-imidazo[4,5-C]pyridine and therapeutic uses thereof” (Samumed, LLC, priority 2014, dated 2018).

Key:
[1] = tested on: primary human fibroblasts derived from IPF patients (LL29 cells); test: Inhibition of fibrosis: TGF-β1-treated primary human fibroblasts from IPF patients (LL29), αSMA staining; type: cell-based; settings: Fibroblast, 96 h, TGF-β1 20 ng/mL, 4 days, % αSMA-positive cells
Summary of the method: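 […] (0.1% DMSO) on LL29 cells in F12 with 1% FBS, with TGF-β1 (20 ng/mL) added 1 h after plating; 4 days at 37 °C. SYTOX-positive dead cells were excluded and the % αSMA-positive cells was imaged, normalized to TGF-β1/DMSO wells, triplicates; EC50 by non-linear regression.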

[2] = tested on: Wnt activity (Sp5-Luc reporter, SW480 colon carcinoma cells); test: Screening assay for Wnt activity: Sp5-Luc reporter gene assay in SW480 cells; type: cell-based; settings: Homo sapiens, 42 h incubation, luminescence
Summary of the method: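 IC50 values come from variable-slope four-parameter fits of luciferase signal normalized to DMSO wells. Stable Sp5-Luc reporter SW480 colon carcinoma cells were exposed to compounds in a 3-fold dilution series (source plates from 10 mM stock) for forty-two hours at 37 °C.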

Structure (SMILES) | EC50 [1] [nM] | IC50 [2] [nM]
CC(C)CC(=O)Nc1cncc(-c2ccc3[nH]nc(-c4nc5c(-c6ccc(F)cc6)nccc5[nH]4)c3c2)c1 [Compound 28, N-(5-(3-(4-(4-Fluorophenyl)-1H-imidazo[4,5-c]pyridin-2-yl)-1H-indazol-5-yl)pyridin-3-yl)-3-methylbutanamide] | 9 | 9
O=C(Nc1cncc(-c2ccc3[nH]nc(-c4nc5c(-c6ccoc6)nccc5[nH]4)c3c2)c1)C1CCC1 [Compound 280, N-(5-(3-(4-(Furan-3-yl)-1H-imidazo[4,5-c]pyridin-2-yl)-1H-indazol-5-yl)pyridin-3-yl)cyclobutanecarboxamide] | 1240 | 27.9
CC(C)Nc1cncc(-c2ccc3[nH]nc(-c4nc5c(-c6ccc(F)cc6)nccc5[nH]4)c3c2)c1 [Compound 38, 5-(3-(4-(4-Fluorophenyl)-1H-imidazo[4,5-c]pyridin-2-yl)-1H-indazol-5-yl)-N-isopropylpyridin-3-amine] | 126 | 42.9
CC(C)(C)C(=O)Nc1cncc(-c2ccc3[nH]nc(-c4nc5c(-c6ccc(F)s6)nccc5[nH]4)c3c2)c1 [Compound 320, N-(5-(3-(4-(5-Fluorothiophen-2-yl)-1H-imidazo[4,5-c]pyridin-2-yl)-1H-indazol-5-yl)pyridin-3-yl)pivalamide] | 115 | 5.2
CC(C)C(=O)Nc1cncc(-c2ccc3[nH]nc(-c4nc5c(-c6cccnc6)nccc5[nH]4)c3c2)c1 [Compound 87, N-(5-(3-(4-(Pyridin-3-yl)-1H-imidazo[4,5-c]pyridin-2-yl)-1H-indazol-5-yl)pyridin-3-yl)isobutyramide] | 295 | 3
O=C(Nc1cncc(-c2ccc3[nH]nc(-c4nc5c(-c6ccccc6F)nccc5[nH]4)c3c2)c1)C1CCCC1 [Compound 73, N-(5-(3-(4-(2-Fluorophenyl)-1H-imidazo[4,5-c]pyridin-2-yl)-1H-indazol-5-yl)pyridin-3-yl)cyclopentanecarboxamide] | 9 | 8
Cc1ccc(-c2nccc3[nH]c(-c4n[nH]c5ccc(-c6cncc(N)c6)cc45)nc23)s1 [Compound 341, 5-(3-(4-(5-Methylthiophen-2-yl)-1H-imidazo[4,5-c]pyridin-2-yl)-1H-indazol-5-yl)pyridin-3-amine] | 9 | 1.3
CS(=O)(=O)NCc1cc(F)cc(-c2nccc3[nH]c(-c4n[nH]c5ccc(-c6cncc(CNCc7ccccc7)c6)cc45)nc23)c1 [Compound 413, N-(3-(2-(5-(5-((Benzylamino)methyl)pyridin-3-yl)-1H-indazol-3-yl)-1H-imidazo[4,5-c]pyridin-4-yl)-5-fluorobenzyl)methanesulfonamide] | 9 | 187
O=C(Cc1ccccc1)Nc1cncc(-c2ccc3[nH]nc(-c4nc5c(-c6ccsc6)nccc5[nH]4)c3c2)c1 [Compound 244, 2-Phenyl-N-(5-(3-(4-(thiophen-3-yl)-1H-imidazo[4,5-c]pyridin-2-yl)-1H-indazol-5-yl)pyridin-3-yl)acetamide] | 203 | 69.1
CS(=O)(=O)NCc1cc(F)cc(-c2nccc3[nH]c(-c4n[nH]c5ccc(-c6cncnc6)cc45)nc23)c1 [Compound 416, N-(3-Fluoro-5-(2-(5-(pyrimidin-5-yl)-1H-indazol-3-yl)-1H-imidazo[4,5-c]pyridin-4-yl)benzyl)methanesulfonamide] | 27 | < 1
CN(C)Cc1cncc(-c2ccc3[nH]nc(-c4nc5c(-c6cccs6)nccc5[nH]4)c3c2)c1 [Compound 299, N,N-Dimethyl-1-(5-(3-(4-(thiophen-2-yl)-1H-imidazo[4,5-c]pyridin-2-yl)-1H-indazol-5-yl)pyridin-3-yl)methanamine] | 608 | 332
Fc1ccc(-c2nccc3[nH]c(-c4n[nH]c5ccc(-c6cncc(CN7CCCC7)c6)cc45)nc23)s1 [Compound 326, 4-(5-Fluorothiophen-2-yl)-2-(5-(5-(pyrrolidin-1-ylmethyl)pyridin-3-yl)-1H-indazol-3-yl)-1H-imidazo[4,5-c]pyridine] | 940 | 284
CC(C)Nc1cncc(-c2ccc3[nH]nc(-c4nc5c(-c6cc(F)cc(NCCN(C)C)c6)nccc5[nH]4)c3c2)c1 [Compound 428, N^1-(3-Fluoro-5-(2-(5-(5-(isopropylamino)pyridin-3-yl)-1H-indazol-3-yl)-1H-imidazo[4,5-c]pyridin-4-yl)phenyl)-N^2,N^2-dimethylethane-1,2-diamine] | 9 | 6
Cc1cn(-c2nccc3[nH]c(-c4n[nH]c5ccc(-c6cncc(NC(=O)CC(C)C)c6)cc45)nc23)cn1 [Compound 184, 3-Methyl-N-(5-(3-(4-(4-methyl-1H-imidazol-1-yl)-1H-imidazo[4,5-c]pyridin-2-yl)-1H-indazol-5-yl)pyridin-3-yl)butanamide] | 49 | 2
Cc1ccc(-c2nccc3[nH]c(-c4n[nH]c5ccc(-c6cncc(NC(=O)C7CCC7)c6)cc45)nc23)s1 [Compound 358, N-(5-(3-(4-(5-Methylthiophen-2-yl)-1H-imidazo[4,5-c]pyridin-2-yl)-1H-indazol-5-yl)pyridin-3-yl)cyclobutanecarboxamide] | 21 | 9
CCCCC(=O)Nc1cncc(-c2ccc3[nH]nc(-c4nc5c(-c6cc(F)cc(NCCN(C)C)c6)nccc5[nH]4)c3c2)c1 [Compound 434, N-(5-(3-(4-(3-((2-(Dimethylamino)ethyl)amino)-5-fluorophenyl)-1H-imidazo[4,5-c]pyridin-2-yl)-1H-indazol-5-yl)pyridin-3-yl)pentanamide] | 459 | 16
O=C(Nc1cncc(-c2ccc3[nH]nc(-c4nc5c(-c6cccc(F)c6)nccc5[nH]4)c3c2)c1)C1CCCC1 [Compound 21, N-(5-(3-(4-(3-Fluorophenyl)-1H-imidazo[4,5-c]pyridin-2-yl)-1H-indazol-5-yl)pyridin-3-yl)cyclopentanecarboxamide] | 317 | 12.8
CC(=O)c1ccc(-c2nccc3[nH]c(-c4n[nH]c5ccc(-c6cccnc6)cc45)nc23)s1 [Compound 368, 1-(5-(2-(5-(Pyridin-3-yl)-1H-indazol-3-yl)-1H-imidazo[4,5-c]pyridin-4-yl)thiophen-2-yl)ethan-1-one] | 14 | < 1
COc1cncc(-c2ccc3[nH]nc(-c4nc5c(-c6cccc(F)c6)nccc5[nH]4)c3c2)c1 [Compound 1780, 4-(3-Fluorophenyl)-2-(5-(5-methoxypyridin-3-yl)-1H-indazol-3-yl)-1H-imidazo[4,5-c]pyridine] | 19 | 25
CN(C)CC(=O)Nc1cncc(-c2ccc3[nH]nc(-c4nc5c(-c6cccc(F)c6)nccc5[nH]4)c3c2)c1 [Compound 2251, 2-(Dimethylamino)-N-(5-(3-(4-(3-fluorophenyl)-1H-imidazo[4,5-c]pyridin-2-yl)-1H-indazol-5-yl)pyridin-3-yl)acetamide] | 75 | 124
O=C(Nc1cncc(-c2ccc3[nH]nc(-c4nc5c(N6CCCCC6)nccc5[nH]4)c3c2)c1)C1CC1 [Compound 175, N-(5-(3-(4-(Piperidin-1-yl)-1H-imidazo[4,5-c]pyridin-2-yl)-1H-indazol-5-yl)pyridin-3-yl)cyclopropanecarboxamide] | 115 | 278
CCNCc1cncc(-c2ccc3[nH]nc(-c4nc5c(-c6ccoc6)nccc5[nH]4)c3c2)c1 [Compound 266, N-((5-(3-(4-(Furan-3-yl)-1H-imidazo[4,5-c]pyridin-2-yl)-1H-indazol-5-yl)pyridin-3-yl)methyl)ethanamine] | 9 | 36
CC(C)(C)C(=O)Nc1cncc(-c2ccc3[nH]nc(-c4nc5c(-c6ccc(F)cc6)nccc5[nH]4)c3c2)c1 [Compound 34, N-(5-(3-(4-(4-fluorophenyl)-1H-imidazo[4,5-c]pyridin-2-yl)-1H-indazol-5-yl)pyridin-3-yl)pivalamide] | 9 | 13
Cc1ccc(-c2nccc3[nH]c(-c4n[nH]c5ccc(-c6cncc(NC(=O)C(C)C)c6)cc45)nc23)s1 [Compound 347, N-(5-(3-(4-(5-Methylthiophen-2-yl)-1H-imidazo[4,5-c]pyridin-2-yl)-1H-indazol-5-yl)pyridin-3-yl)isobutyramide] | 38 | 7
Fc1cccc(-c2nccc3[nH]c(-c4n[nH]c5ccc(-c6cncc(CN7CCC(F)(F)C7)c6)cc45)nc23)c1 [Compound 25, 2-(5-(5-((3,3-Difluoropyrrolidin-1-yl)methyl)pyridin-3-yl)-1H-indazol-3-yl)-4-(3-fluorophenyl)-1H-imidazo[4,5-c]pyridine] | 56 | 10
CCCC(=O)Nc1cncc(-c2ccc3[nH]nc(-c4nc5c(-c6ccsc6)nccc5[nH]4)c3c2)c1 [Compound 251, N-(5-(3-(4-(Thiophen-3-yl)-1H-imidazo[4,5-c]pyridin-2-yl)-1H-indazol-5-yl)pyridin-3-yl)butyramide] | 18 | 1
CC(C)C(=O)Nc1cncc(-c2ccc3[nH]nc(-c4nc5c(-c6cccs6)nccc5[nH]4)c3c2)c1 [Compound 295, N-(5-(3-(4-(Thiophen-2-yl)-1H-imidazo[4,5-c]pyridin-2-yl)-1H-indazol-5-yl)pyridin-3-yl)isobutyramide] | 186 | 30.8
Oc1cncc(-c2ccc3[nH]nc(-c4nc5c(-c6cccc(F)c6)nccc5[nH]4)c3c2)c1 [Compound 1781, 5-(3-(4-(3-Fluorophenyl)-1H-imidazo[4,5-c]pyridin-2-yl)-1H-indazol-5-yl)pyridin-3-ol] | 79 | 6
